Data on 14 compounds can be found in US9255094B2, “Pyrido[4,3-B]indoles and methods of use” (Medivation Technologies, Inc., priority 2009, dated 2016).

In the first test the target is T1, human recombinant serotonin (5-Hydroxytryptamine) 5-HT2A receptor (Homo sapiens, UniProt P28223).
T1 construct: expressed in transfected cells; host or cells: Chinese hamster ovary (CHO-K1) cells
T1 sequence (P28223 whole entry): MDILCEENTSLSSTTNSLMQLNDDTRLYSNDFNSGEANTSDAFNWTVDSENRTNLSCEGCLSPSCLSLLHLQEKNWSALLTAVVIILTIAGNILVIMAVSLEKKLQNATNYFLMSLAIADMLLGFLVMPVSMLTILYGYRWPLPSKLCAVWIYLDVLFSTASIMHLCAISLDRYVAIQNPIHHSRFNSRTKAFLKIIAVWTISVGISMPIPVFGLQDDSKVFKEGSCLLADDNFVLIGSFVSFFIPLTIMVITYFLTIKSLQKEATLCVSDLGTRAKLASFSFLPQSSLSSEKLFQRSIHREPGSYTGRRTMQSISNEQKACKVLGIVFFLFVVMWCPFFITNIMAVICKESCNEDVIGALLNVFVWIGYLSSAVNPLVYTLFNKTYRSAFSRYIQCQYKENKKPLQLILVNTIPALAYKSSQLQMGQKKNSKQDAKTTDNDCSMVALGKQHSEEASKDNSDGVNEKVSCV
Kind of test: Serotonin 5-HT2A radioligand binding assay ([3H]Ketanserin). As to conditions: compound at 0.1 μM; 0.5 nM [3H]Ketanserin; CHO-K1 cells; read-out: Percent Inhibition of ligand binding, Serotonin (0.1 μM) 5-HT2A. As to the method:
Compounds of the invention were incubated with 0.5 nM [^3H]Ketanserin for 60 min at 25° C. Non-specific binding was estimated in the presence of 1 μM Mianserin. Receptor proteins were filtered and washed, the filters were then counted to determine [^3H]Ketanserin specifically bound. Compounds were screened at 1 μM or lower, using 1% DMSO as vehicle. Biochemical assay results are presented as the percent inhibition of specific binding in Table 4.
For the compound `CC(C)C(O)(Cn1c2c(c3cc(Cl)ccc31)CN(C)CC2)c1ccncc1` (centres unmarked) [Compound 1-21, 1-(8-chloro-2-methyl-3,4-dihydro-1H-pyrido[4,3-b]indol-5(2H)-yl)-3-methyl-2-(pyridin-4-yl)butan-2-ol], the inhibition at 0.1 µM stood at 68%. For the compound `Cc1ccc2c(c1)c1c(n2CC(C)(O)c2cnccn2)CCN(C)C1` (centres unmarked) [Compound 1-28, 1-(2,8-dimethyl-3,4-dihydro-1H-pyrido[4,3-b]indol-5(2H)-yl)-2-(pyrazin-2-yl)propan-2-ol], the inhibition at 0.1 µM was 30%.

As to `CN1CCc2c(c3cc(Cl)ccc3n2CC(C)(O)c2cnccn2)C1` (centres unmarked) [Compound 1-27, 1-(8-chloro-2-methyl-3,4-dihydro-1H-pyrido[4,3-b]indol-5(2H)-yl)-2-(pyrazin-2-yl)propan-2-ol], the inhibition at 0.1 µM was found to be 40%. The same measure, in the same setting: the same measure for `Cc1ccc2c(c1)c1c(n2CC(O)(c2ccncc2)C(C)C)CCN(C)C1` (centres unmarked) [Compound 1-22, 1-(2,8-dimethyl-3,4-dihydro-1H-pyrido[4,3-b]indol-5(2H)-yl)-3-methyl-2-(pyridin-4-yl)butan-2-ol]: 71%.

The test is the same for the next values; noted with them: compound at 1 μM; 0.5 nM [3H]Ketanserin; CHO-K1 cells; read-out: Percent Inhibition of ligand binding, Serotonin (1 μM) 5-HT2A.
Take `CN1CCc2c(c3cc(F)ccc3n2CC(C)(O)c2ccncc2)C1` (centres unmarked) [Compound 1-9, 1-(8-fluoro-2-methyl-3,4-dihydro-1H-pyrido[4,3-b]indol-5(2H)-yl)-2-(pyridin-4-yl)propan-2-ol]: the inhibition at 1 µM stood at 77%.

As for `CN1CCc2c(c3cc(Cl)ccc3n2CC(C)(O)c2cccnc2)C1` (centres unmarked) [Compound 1-54, 1-(8-chloro-1,2,3,4-tetrahydro-2-methylpyrido[4,3-b]indol-5-yl)-2-(pyridin-3-yl)propan-2-ol], the inhibition at 1 µM was determined as 77%. The same measure, in the same setting: the same measure for `CN1CCc2c(c3ccc(Cl)cc3n2CC(C)(O)c2ccncc2)C1` (centres unmarked) [Compound 1-12, 1-(7-chloro-2-methyl-3,4-dihydro-1H-pyrido[4,3-b]indol-5(2H)-yl)-2-(pyridin-4-yl)propan-2-ol]: 82%. For the compound `CCC(O)(Cn1c2c(c3cc(C)ccc31)CN(C)CC2)c1ccc(F)cc1` (centres unmarked) [Compound 1-5, 1-(2,8-dimethyl-3,4-dihydro-1H-pyrido[4,3-b]indol-5(2H)-yl)-2-(4-fluorophenyl)butan-2-ol], the inhibition at 1 µM stood at 102%. Still for that read-out and setting: the same measure for `COc1ccc2c(c1)c1c(n2CC(C)(O)c2ccncc2)CCN(C)C1` (centres unmarked) [Compound 1-16, 1-(8-methoxy-2-methyl-3,4-dihydro-1H-pyrido[4,3-b]indol-5(2H)-yl)-2-(pyridin-4-yl)propan-2-ol]: 50%; for `Cc1ccc2c(c1)c1c(n2CC(O)c2ccc(F)cc2)CCN(C)C1` (centres unmarked) [Compound 1-2, 2-(2,8-dimethyl-3,4-dihydro-1H-pyrido[4,3-b]indol-5(2H)-yl)-1-(4-fluorophenyl)ethanol]: 91%; for `CN1CCc2c(c3ccccc3n2CC(C)(O)c2ccncc2)C1` (centres unmarked) [Compound 1-14, 1-(2-methyl-3,4-dihydro-1H-pyrido[4,3-b]indol-5(2H)-yl)-2-(pyridin-4-yl)propan-2-ol]: 74%.

For `COc1ccc(C(C)(O)Cn2c3c(c4cc(Cl)ccc42)CN(C)CC3)cc1F` (centres unmarked) [Compound 1-59, 1-(8-chloro-1,2,3,4-tetrahydro-2-methylpyrido[4,3-b]indol-5-yl)-2-(3-fluoro-4-methoxyphenyl)propan-2-ol], the inhibition at 1 µM is 96%. On the same count and under the same terms, under `CN1CCc2c(c3cccc(F)c3n2CC(C)(O)c2ccncc2)C1` (centres unmarked) [Compound 1-13, 1-(6-fluoro-2-methyl-3,4-dihydro-1H-pyrido[4,3-b]indol-5(2H)-yl)-2-(pyridin-4-yl)propan-2-ol] stands 82%; under `CN1CCc2c(c3cc(Cl)ccc3n2CC(O)(c2ccc(F)cc2)C2CCC2)C1` (centres unmarked) [Compound 1-6, 2-(8-chloro-2-methyl-3,4-dihydro-1H-pyrido[4,3-b]indol-5(2H)-yl)-1-cyclobutyl-1-(4-fluorophenyl)ethanol], 97%.

What is called inhibition is the relative decrease from the control value, in per cent.
